Experimental data taken from ChEMBL document CHEMBL3507680, “University of Dundee, Gates Library screen for HepG2 cell viability”.

Assay: Human HepG2 cell viability assay in 384 well format
Format: toxicity, cell-based
Set-up: dose 125 nL, time 70.5 hour; concentration not given beside the values
Conditions: HepG2 cells, read-out: Inhibition

Cn1ccnc1CN1CCC2(CC1)COCCN(c1ncccn1)C2
cytotoxicity at 70.5 h: -5.62%

CCC(C)(C)C(=O)N1C[C@@H]2C[C@@H](c3nnc(C)[nH]3)O[C@@H]2C1
cytotoxicity at 70.5 h: -8.87%

COc1cccc(NC(=O)N2CC[C@@H]3CN(C)S(=O)(=O)[C@@H]3CC2)c1
cytotoxicity at 70.5 h: 20.9%

COCCN(C)C(=O)c1cc2c(s1)CCN2C(=O)C1CC1
cytotoxicity at 70.5 h: 2.55%

c1c(CN2CCOCC2)nc2n1CCN(CC1CC1)C2
cytotoxicity at 70.5 h: -3.69%

Cn1ccc(C(=O)N2CCC3(CC2)CC(Nc2cnccn2)CO3)n1 (stereo not given)
cytotoxicity at 70.5 h: -7%

Cc1cccc(CN2CCC3(CC(C(=O)NCC(C)C)=NO3)C2)c1 (stereo not given)
cytotoxicity at 70.5 h: -5.06%

COCC(=O)N1CCCC2(CCN(c3ccsc3)C2=O)C1 (stereo not given)
cytotoxicity at 70.5 h: 32.8%

N#Cc1ccc(C(=O)N2CC[C@H]3[C@@H]2CCC(=O)N3c2ccccc2)cc1
cytotoxicity at 70.5 h: -12%

Cn1cccc1C(=O)N1CCn2cc(CNC(=O)CC3CC3)nc2C1
cytotoxicity at 70.5 h: -10.2%

COCCC(=O)N1CC[C@@H](N(C)C)[C@@H]1Cc1ccccc1
cytotoxicity at 70.5 h: -3.88%

O=C(c1ccncc1)N1CCCn2c(CN3CCCCC3)nnc2C1
cytotoxicity at 70.5 h: -8.6%

COCC1CN(C(=O)c2ccnnc2)Cc2c1cnn2C (stereo not given)
cytotoxicity at 70.5 h: -1.23%

COc1cccc(CC(=O)N2CCc3ncnc(NC(C)C)c3CC2)c1
cytotoxicity at 70.5 h: -14%

CN1C(=O)CC(c2cnn(C)c2)C12CCN(C(=O)C1CC=CC1)CC2 (stereo not given)
cytotoxicity at 70.5 h: -6.39%

O=C(c1ccoc1)N1CC[C@@H]2O[C@H](COCc3ccccn3)CC[C@@H]21
cytotoxicity at 70.5 h: -11.6%

O=C(c1ccoc1)N1CCCn2cnc(COCC3CC3)c2C1
cytotoxicity at 70.5 h: -10.8%

Cc1noc(C)c1CN1CC[C@H]2C[C@@H](c3nccs3)O[C@@H]2C1
cytotoxicity at 70.5 h: -14.7%

Cc1cc(CN2CC[C@H]3C[C@H](C)O[C@@H]3C2)no1
cytotoxicity at 70.5 h: -13.8%

c1ccc(CN2C[C@@H]3OCCN(CC4CCCO4)[C@@H]3C2)nc1 (stereo not given in full)
cytotoxicity at 70.5 h: -9.93%

COc1cc(N2C[C@@H]3COC[C@]3(COc3ccc(C#N)cn3)C2)ncn1
cytotoxicity at 70.5 h: 7.01%

CN1CCN(c2ncnc3c2c(C(=O)NC2CC2)c2ccccn23)CC1
cytotoxicity at 70.5 h: 5.64%

O=C(C1CCOC1)N1CCc2ncc(CNc3ccccn3)n2CC1 (stereo not given)
cytotoxicity at 70.5 h: 0.605%

O=C(c1ccc(-c2cn[nH]c2)nc1)N1CCC(N2CCOCC2)CC1
cytotoxicity at 70.5 h: -3.67%

CCc1ncc(CN2CCOC(Cc3cccc(F)c3)C2)cn1 (stereo not given)
cytotoxicity at 70.5 h: -9.07%

O[C@@]1(CNCCOc2ccccc2)CCCN2CCCC[C@@H]21
cytotoxicity at 70.5 h: 28%

CN(Cc1nc(Cc2cccc(C(F)(F)F)c2)no1)CC1CCCCO1 (stereo not given)
cytotoxicity at 70.5 h: -11.5%

COCCCN1C(=O)CC[C@H]2CN(c3ccc(C(N)=O)cn3)CC[C@H]21
cytotoxicity at 70.5 h: 4.03%

COc1ccc2[nH]cc(CCNC(=O)C3CCCN(C(C)=O)C3)c2c1 (stereo not given)
cytotoxicity at 70.5 h: -9.73%

COC[C@@]12CCC[C@@H]1CN(C(=O)CN(C)C)C2
cytotoxicity at 70.5 h: -6.84%

Cc1ccc(CN2CCc3onc(C(=O)NC(C)C)c3C2)o1
cytotoxicity at 70.5 h: -8.41%

COCC1COCCC12CCN(Cc1nccs1)CC2 (stereo not given)
cytotoxicity at 70.5 h: -5.6%

C1CC(N2Cc3nnn(CC4CC4)c3C(COCC3CC3)C2)C1 (stereo not given)
cytotoxicity at 70.5 h: -3.4%

Cc1noc(C)c1CN1CC[C@@H](OCC2CC2)[C@@H](Cc2ccccc2)C1
cytotoxicity at 70.5 h: -4.91%

CCn1cc2c(n1)CN(CC1CC1)CC2COCC1CC1 (stereo not given)
cytotoxicity at 70.5 h: -15%

O=C1COC2(CCN(Cc3ccoc3)CC2)CN1c1ccsc1
cytotoxicity at 70.5 h: -15.9%

CCn1cc2c(n1)CN(Cc1nccs1)CC2COCC1CC1 (stereo not given)
cytotoxicity at 70.5 h: -11%

CC(=O)N1CCOCC2(CN(Cc3ccc(C)o3)CCO2)C1 (stereo not given)
cytotoxicity at 70.5 h: 28.8%

O=C([C@@H]1C[C@@H]2CCN(CCc3ccccc3)C[C@H]2O1)N1CCCC1
cytotoxicity at 70.5 h: -3.84%

Cc1ccc(CN2CCCn3nnc(COCC4CC4)c3C2)s1
cytotoxicity at 70.5 h: -1.67%

Cc1noc(C)c1CN1C[C@@H]2COC[C@H](C(=O)N3CCCCO3)[C@@H]2C1
cytotoxicity at 70.5 h: -13%

Cn1cc(CN2CCn3cc(CNC(=O)c4cccn4C)nc3C2)cn1
cytotoxicity at 70.5 h: -2.17%

Cc1occc1C(=O)N1CCO[C@H]2[C@@H](Oc3ccccn3)CC[C@@H]21
cytotoxicity at 70.5 h: 4.46%

Cc1ccc(CN2C[C@@H]3COC[C@H](C(=O)N4CCCCO4)[C@@H]3C2)o1
cytotoxicity at 70.5 h: -8.64%

O=C(c1cscn1)N1CC[C@]2(C[C@@H](OCCN3CCCC3)CO2)C1
cytotoxicity at 70.5 h: -6.54%

Cc1cccc(COC[C@H]2CC[C@H]3[C@H](CCN3C(=O)CC3CC3)O2)n1
cytotoxicity at 70.5 h: -6.89%

CCN1C(=O)CCC12CCCN(Cc1nccs1)CC2 (stereo not given)
cytotoxicity at 70.5 h: -8.57%

O=C1[C@H]2CN(Cc3nccs3)C[C@H]2CN1c1ccsc1
cytotoxicity at 70.5 h: -1.21%

CO[C@H]1CN(C(=O)c2ccccn2)[C@@H]2CCCO[C@H]12
cytotoxicity at 70.5 h: -14.9%

Cc1ccsc1C(=O)N1C[C@@H]2CN(Cc3ccoc3)CCO[C@@H]2C1
cytotoxicity at 70.5 h: -1.7%

CCOCC1CN(Cc2ccc(OC)cc2)Cc2nn(C)cc21 (stereo not given)
cytotoxicity at 70.5 h: 25.5%

Cn1cc(N2CC3(COCCN(Cc4ccsc4)C3)OCC2=O)cn1 (stereo not given)
cytotoxicity at 70.5 h: 22.6%

O=C1COC2(COCCN(Cc3ccsc3)C2)CN1c1ccc(F)cc1 (stereo not given)
cytotoxicity at 70.5 h: -2.28%

COCCN1C[C@@H]2COC[C@@H](CC(=O)NCc3cccnc3)[C@@H]2C1
cytotoxicity at 70.5 h: -16.6%

CCOC1COC2(CCN(Cc3cccnc3OC)CC2)C1 (stereo not given)
cytotoxicity at 70.5 h: -1.38%

c1c(CN2CCCC2)nc2n1CCN(C1CCOCC1)C2
cytotoxicity at 70.5 h: -0.565%

O=C(N1CCOCC1)[C@@]12CCO[C@@H]1CCN(Cc1ccncc1)C2
cytotoxicity at 70.5 h: -3.44%

CN1CCOCC12CCN(Cc1ccoc1)CC2
cytotoxicity at 70.5 h: -13.2%

Cc1ccc2c(n1)N(CCN(C)C)CCN(C(=O)c1ccc[nH]1)C2
cytotoxicity at 70.5 h: 0.599%

CN(Cc1cn2c(n1)CN(CC1CC1)CC2)Cc1ccco1
cytotoxicity at 70.5 h: -11.8%

CN(Cc1cn2c(n1)CN(c1ncc(F)cn1)CC2)Cc1ccco1
cytotoxicity at 70.5 h: -8.98%

O=C(NC[C@]12COC[C@H]1CN(Cc1cccnc1)C2)c1ccno1
cytotoxicity at 70.5 h: -14.7%

c1cncc(CN2CC[C@H]3O[C@@H](COCC4CC4)CC[C@H]32)c1
cytotoxicity at 70.5 h: -5.15%

c1cncc(CN2CCc3ncnc(C4CCOC4)c3CC2)c1 (stereo not given)
cytotoxicity at 70.5 h: 22.8%

COCCN1C[C@@H]2CCCO[C@@H]2[C@H](N(C)Cc2ccco2)C1
cytotoxicity at 70.5 h: -2.22%

Cn1cc(C(=O)N2CC[C@@H]3[C@@H]2CCN3Cc2cccnc2)cn1
cytotoxicity at 70.5 h: -14.5%

c1cnc(N2CCC3(CCN(Cc4ccncc4)CC3)CC2)nc1
cytotoxicity at 70.5 h: -15.7%

COc1cc(N2C[C@@H]3COC[C@]3(COCc3cccc(C)n3)C2)ncn1
cytotoxicity at 70.5 h: -0.577%

COc1cccc(CN2C[C@@H]3COC[C@]3(COCc3ccncc3)C2)c1
cytotoxicity at 70.5 h: 5.79%

CCc1ccc(CN2CCN(C)c3ncccc3C2)o1
cytotoxicity at 70.5 h: 24.1%

Cc1ccc2c(n1)N(Cc1cccnc1)CCN(C(=O)C1CCC1)C2
cytotoxicity at 70.5 h: -12.9%

O=C(c1cccnc1)N1CCn2nnc(COc3cccnc3)c2C1
cytotoxicity at 70.5 h: -3.89%

CC(C)N1CC[C@H]2[C@H](C[C@@H](Cn3cccn3)N2c2nccs2)C1
cytotoxicity at 70.5 h: -4.28%

CN(C)CCN1CCOCC2(C1)CN(Cc1ccsc1)CCO2 (stereo not given)
cytotoxicity at 70.5 h: -9.68%

Cc1ccc(N2CCO[C@H]3CN(Cc4ccncc4)C[C@H]32)nn1
cytotoxicity at 70.5 h: -8.56%
